Laboratory results published in patent US20230057359A1, “NOVEL USE OF STEVIOL” (SUNTORY HOLDINGS LIMITED, priority 2019, published 2023).

Tested on: HepG2 cells
Experiment: Fat accumulation test in hepatocytes (oil red staining, oleic acid)
Assay type: cell-based
Settings: for Relative fat accumulation level (%): 0.2 mM oleic acid, 24 hours, DMSO=100%
Experimental: Normal human subcutaneous preadipocytes were precultured using the growth medium in the same manner as in Example 1. The cells were detached using 0.25% trypsin-EDTA, seeded at 10,000 cells/100 μL/well to a 96-well plate using a growth medium, and cultured overnight in a CO2 incubator. On the next day, the medium was replaced with 100 μL of a differentiation medium supplemented with varying concentrations of steviol (12.5, 25, 50, 100 or 200 μg/mL, dissolved in 0.1% DMSO (final concentration)). The cells were cultured for 10 days in a CO2 incubator to induce their differentiation into adipocytes. On the fourth and seventh days after the differentiation induction, the medium was replaced with a fresh medium (100 μL) having the same composition as above. A differentiation medium supplemented with 25 mM LiCl (Cat. No. SML0559, Sigma-Aldrich Co., LLC) was used as a positive control, and a differentiation medium supplemented with 0.1% DMSO (final concentration) was used as a negative control. Cells cultured in a growth medium were used as an untreated control (Untreated). The cells thus cultured were subjected to oil red staining. Specifically, the cells were washed twice with 100 μL of DPBS (Cat. No. 14190250, Thermo Fisher Scientific Inc.). Then, the cells were fixed (room temperature, 10 min) in 100 μL of a 10% formalin solution (Cat. No. 061-00416, FUJIFILM Wako Pure Chemical Corp.). The cells were washed twice with 100 μL of DPBS, then incubated for 1 minute in 100 μL of 60% 2-propanol (Cat. No. 166-04836, FUJIFILM Wako Pure Chemical Corp.) that replaced the medium, and stained for 15 minutes in 100 μL of an oil red staining solution (Cat. No. 00625, Sigma-Aldrich Co., LLC) that replaced the 2-propanol solution. The cells were washed once with 100 μL of 60% 2-propanol and washed twice with 100 μL of DPBS. Then, cell images were taken in 100 μL of DPBS. After subsequent replacement with 120 μL of 100% 2-propanol, oil red was extracted by incubation for 5 minutes, and 100 μL of the extracts was transferred to each well of a fresh 96-well plate. Absorbance (520 nm) was measured using a plate reader (VARIOSKAN FLASH, Thermo Fisher Scientific Inc.), and a relative fat accumulation level was calculated. Significant difference of differentiation non-induced group vs differentiation induced group (negative control group) was tested (two-tailed), and P<0.05 was regarded as having significant difference. Also, significant difference of negative control group vs steviol addition group/positive control group was tested (two-tailed) by the Dunnett test, and P<0.05 was regarded as having significant difference. […] HepG2 cells were precultured using the growth medium in the same manner as in Example 5. The cells were detached using 0.25% trypsin-EDTA, seeded at 30,000 cells/100 μL/well to a 96-well plate using the growth medium, and cultured overnight in a CO2 incubator. On the next day, the medium was replaced with 100 μL of a test medium (DMEM (high glucose) supplemented with 0.2 mM oleic acid (Cat. No. 03008, Sigma-Aldrich), 10% FBS and 1% penicillin-streptomycin) supplemented with varying concentrations of steviol (12.5, 25, 50, 100 or 200 μg/mL, dissolved in 0.1% DMSO (final concentration)). The cells were cultured for 24 hours in a CO2 incubator. A test medium supplemented with 2 mM metformin (Cat. No. M2009, Tokyo Chemical Industry Co., Ltd.) was used as a positive control (Metformin), and a vehicle control composed of a test medium supplemented with 0.1% DMSO (final concentration) was used as a negative control (DMSO). Cells cultured in a test medium containing no oleic acid was used as an untreated control (Untreated). The cells thus cultured were subjected to oil red staining in the same manner as in Example 3, followed by photographing and calculation of a relative fat accumulation level. […]

Compound: C=C1C[C@@]23CC[C@H]4[C@@](C)(CCC[C@@]4(C)C(=O)O)[C@@H]2CC[C@]1(O)C3 [Steviol, steviol]
- fat accumulation in HepG2 test (in words) (12.5 to 200 μg/mL): suppressed fat accumulation in adipocytes in a concentration-dependent manner
- Relative fat accumulation level (%) (steviol 12.5 μg/mL): 98.9%
- Relative fat accumulation level (%) (steviol 25 μg/mL): 98.1%
- Relative fat accumulation level (%) (steviol 50 μg/mL): 86.4%
- Relative fat accumulation level (%) (steviol 100 μg/mL): 85.6%
- Relative fat accumulation level (%) (steviol 200 μg/mL): 83.0%
